Laboratory results as given in patent publication US5030760A, “Tetrahydrophthalimides, and their production and use” (Sumitomo Chemical Company, Ltd., priority 1981, dated 1991).

Experiments:
tall morningglory = test: Test Example 5, spraying over the top, herbicidal activity; type: in vivo, Ipomoea purpurea; conditions: sprayed over the top, 20 days; further: ranges in brackets are in %
Description: (§1) The application of the tetrahydrophthalimides (I) as herbicides will be illustratively shown in the following Examples wherein the phytotoxicity to cultivated plants and the herbicidal activity on weeds were evaluated as follows: the aerial parts of the test plants were cut off and weighed (fresh weight); the percentage of the fresh weight of the treated plant to that of the untreated plant was calculated with the latter fresh weight taken as 100; and the crop damage and the herbicidal activity were evaluated by the standard given in the table below. The rating values of phytotoxicity, 0 and 1, and those of herbicidal effect, 5 and 4, are generally regarded as satisfactory to protect cultivated plants and control weeds, respectively. The rating values in the paddy field test alone were calculated from the dry weight of the test plants.
(§2) Plastic trays (35 cm×25 cm×15 cm) were filled with upland field soil, and the seeds of tall morningglory, velvetleaf, jimsonweed, sicklepod, hemp sesbania, prickly side, Johnsongrass, green foxtail and large crabgrass and the seeds of soybean were sown therein. A designed amount of the test compound formulated into a wettable powder according to Preparation Example 1 and dispersed in water was sprayed over the top by means of a small hand sprayer at a spray volume of 5 liters per are. After the spraying, the test plants were grown in greenhouse for 20 days, and phytotoxicity and herbicidal activity were examined.

broad-leaved weed = test: Test Example 6, paddy pot perfusion, herbicidal activity; type: in vivo, monochoria, false pimpernel, toothcup; conditions: 3 weeks, dry weight; further: ranges in brackets are in %
Description: as §1
(§3) Wagner's pots (1/5000 are) were filled with paddy field soil containing the seeds of broad-leaved weeds (e.g. monochoria, false pimpernel, toothcup) and the seeds of barnyardgrass and hardstem bulrush, and water was poured therein until the depth of water became 4 cm. Rice seedlings of the 3.5-leaf stage and the tubers of arrowhead were transplanted therein and grown for 2 days in a greenhouse. A designed amount of the test compound formulated in an emulsifiable concentrate according to Preparation Example 2 was applied to the pots by perfusion. Thereafter, the test plants were grown for an additional 3 weeks in the greenhouse, and herbicidal activity and phytotoxicity were examined. In this treatment, the emulsifiable concentrate was dispersed in water for application at a perfusion volume of 10 liters per are.

large crabgrass = test: Test Example 5, spraying over the top, herbicidal activity; type: in vivo, Digitaria sanguinalis; conditions: sprayed over the top, 20 days; further: ranges in brackets are in %
Description: as §1, §2

arrowhead = test: Test Example 6, paddy pot perfusion, herbicidal activity; type: in vivo, Sagittaria pygmaea; conditions: 3 weeks, dry weight; further: ranges in brackets are in %
Description: as §1, §3

soybean [1] = test: Test Example 4, pre-emergence treatment, phytotoxicity to soybean; type: in vivo; conditions: 20 days; further: ranges in brackets are in %
Description: as §1
(§4) Plastic beakers (diameter, 10 cm; height, 10 cm) were filled with upland field soil, and the seeds of corn, cotton and soybean and the seeds of morningglory, velvetleaf, Johnsongrass and green foxtail were separately sown in the beakers. A designed amount of the test compound was sprayed over the top by means of a small hand sprayer. After the spraying, the test plants were grown for 20 days in the greenhouse, and herbicidal activity and phytotoxicity were examined. In this pre-emergence treatment, the test compounds were formulated into an emulsifiable concentrate according to Preparation Example 2 and applied at a spray volume of 5 liters per are by dispersing it in water with the addition of a spreading agent.

velvetleaf [2] = test: Test Example 1, foliar treatment, herbicidal activity; type: in vivo, Abutilon theophrasti; conditions: 3 weeks; further: ranges in brackets are in %
Method in brief: (§5)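 Crops and weeds sown in upland soil, greenhouse-grown 2 weeks, then sprayed on foliage with compound as emulsifiable concentrate in water plus spreading agent at 5 liters per are. Scored 3 weeks later from aerial fresh weight as percent of untreated plants, converted to a rating scale.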

Johnsongrass [3] = test: Test Example 5, spraying over the top, herbicidal activity; type: in vivo, Sorghum halepense; conditions: sprayed over the top, 20 days; further: ranges in brackets are in %
Description: as §1, §2

velvetleaf [4] = test: as above; type: in vivo, Abutilon theophrasti; conditions: sprayed over the top, 20 days
Description: as §1, §2

wild mustard = test: Test Example 1, foliar treatment, herbicidal activity; type: in vivo, Brassica kaber; conditions: 3 weeks
Method in brief: as §5

sicklepod = test: Test Example 5, spraying over the top, herbicidal activity; type: in vivo, Cassia obtusifolia; conditions: sprayed over the top, 20 days; further: ranges in brackets are in %
Description: as §1, §2

hemp sesbania = test: as above; type: in vivo, Sesbania exaltator; conditions: sprayed over the top, 20 days; further: ranges in brackets are in %
Description: as §1, §2

Johnsongrass [5] = test: Test Example 4, pre-emergence treatment, herbicidal activity; type: in vivo, Sorghum halepense; conditions: 20 days; further: ranges in brackets are in %
Description: as §1, §4

hardstem bulrush = test: Test Example 6, paddy pot perfusion, herbicidal activity; type: in vivo, Scirpus juncoides; conditions: 2.5 g/are, 3 weeks, dry weight; further: ranges in brackets are in %
Description: as §1, §3

green foxtail [6] = test: Test Example 4, pre-emergence treatment, herbicidal activity; type: in vivo, Setaria viridis; conditions: 20 days; further: ranges in brackets are in %
Description: as §1, §4

soybean [7] = test: Test Example 5, spraying over the top, phytotoxicity to soybean; type: in vivo; conditions: sprayed over the top, 20 days; further: ranges in brackets are in %
Description: as §1, §2

corn [8] = test: Test Example 4, pre-emergence treatment, phytotoxicity to corn; type: in vivo; conditions: 20 days; further: ranges in brackets are in %
Description: as §1, §4

rice plant = test: Test Example 6, paddy pot perfusion, phytotoxicity to rice plant; type: in vivo; conditions: 3 weeks, dry weight; further: ranges in brackets are in %
Description: as §1, §3

barnyardgrass [9] = test: Test Example 6, paddy pot perfusion, herbicidal activity; type: in vivo, Echinochloa crus-galli; conditions: 3 weeks, dry weight; further: ranges in brackets are in %
Description: as §1, §3

cotton = test: Test Example 4, pre-emergence treatment, phytotoxicity to cotton; type: in vivo; conditions: 20 days; further: ranges in brackets are in %
Description: as §1, §4

wild oat = test: Test Example 1, foliar treatment, herbicidal activity; type: in vivo, Avena fatua; conditions: 3 weeks; further: ranges in brackets are in %
Method in brief: as §5

jimsonweed = test: Test Example 5, spraying over the top, herbicidal activity; type: in vivo, Datura stramonium; conditions: sprayed over the top, 20 days; further: ranges in brackets are in %
Description: as §1, §2

prickly sida = test: as above; type: in vivo, Sida spinosa; conditions: sprayed over the top, 20 days; further: ranges in brackets are in %
Description: as §1, §2

corn [10] = test: Test Example 1, foliar treatment, phytotoxicity to corn; type: in vivo; conditions: 3 weeks; further: ranges in brackets are in %
Method in brief: as §5

velvetleaf [11] = test: Test Example 4, pre-emergence treatment, herbicidal activity; type: in vivo, Abutilon theophrasti; conditions: 20 days; further: ranges in brackets are in %
Description: as §1, §4

morningglory = test: as above; type: in vivo; conditions: 20 days
Description: as §1, §4

green foxtail [12] = test: Test Example 5, spraying over the top, herbicidal activity; type: in vivo, Setaria viridis; conditions: sprayed over the top, 20 days; further: ranges in brackets are in %
Description: as §1, §2

barnyardgrass [13] = test: Test Example 1, foliar treatment, herbicidal activity; type: in vivo, Echinochloa crus-galli; conditions: 3 weeks; further: ranges in brackets are in %
Method in brief: as §5
Wherever Herbicidal activity, Morningglory is given: ranges in brackets are in %.
Wherever Herbicidal activity, Velvetleaf is given: ranges in brackets are in %.

For `COc1cc(N2C(=O)C3=C(CCCC3)C2=O)c(F)cc1Cl` [Compound No. 1], the “Herbicidal activity, Tall morningglory” value (tall morningglory; 3 g/are) was 4 (1-10), the “Herbicidal activity, Tall morningglory” value (tall morningglory; 9 g/are) was 5 (0) and the “Herbicidal activity, Broad-leaved weed” value (broad-leaved weed; 1.25 g/are) was 5 (0). For the same compound, the “Herbicidal activity, Broad-leaved weed” value (broad-leaved weed; 2.5 g/are) was 5 (0), the “Herbicidal activity, Large crabgrass” value (large crabgrass; 3 g/are) was 5 (0) and the “Herbicidal activity, Large crabgrass” value (large crabgrass; 9 g/are) was 5 (0). The “Herbicidal activity, Arrowhead” value (arrowhead; 1.25 g/are) was 4 (1-10), the “Herbicidal activity, Arrowhead” value (arrowhead; 2.5 g/are) was 5 (0) and the “Phytotoxicity, Soybean” value (soybean [1]; 2.5 g/are) was 0 (100). For the same compound, the “Phytotoxicity, Soybean” value (soybean [1]; 10 g/are) was 0 (100), the “Herbicidal activity, Velvetleaf” value (velvetleaf [2]; 1.25 g/are) was 5 (0) and the “Herbicidal activity, Velvetleaf” value (velvetleaf [2]; 5 g/are) was 5 (0). For the same compound, the “Herbicidal activity, Johnsongrass” value (Johnsongrass [3]; 3 g/are) was 5 (0), the “Herbicidal activity, Johnsongrass” value (Johnsongrass [3]; 9 g/are) was 5 (0) and the “Herbicidal activity, Velvetleaf” value (velvetleaf [4]; 3 g/are) was 5 (0). For the same compound, the “Herbicidal activity, Velvetleaf” value (velvetleaf [4]; 9 g/are) was 5 (0), the “Herbicidal activity, Wild mustard” value (wild mustard; 1.25 g/are) was 5 (0) and the “Herbicidal activity, Wild mustard” value (wild mustard; 5 g/are) was 5 (0). For the same compound, the “Herbicidal activity, Sicklepod” value (sicklepod; 3 g/are) was 4 (1-10), the “Herbicidal activity, Sicklepod” value (sicklepod; 9 g/are) was 5 (0) and the “Herbicidal activity, Hemp sesbania” value (hemp sesbania; 3 g/are) was 5 (0). For the same compound, the “Herbicidal activity, Hemp sesbania” value (hemp sesbania; 9 g/are) was 5 (0), the “Herbicidal activity, Johnsongrass” value (Johnsongrass [5]; 2.5 g/are) was 5 (0) and the “Herbicidal activity, Johnsongrass” value (Johnsongrass [5]; 10 g/are) was 5 (0). For the same compound, the “Herbicidal activity, Hardstem bulrush” value (hardstem bulrush) was 4 (1-10), the “Herbicidal activity, Green foxtail” value (green foxtail [6]; 2.5 g/are) was 4 (1-10) and the “Herbicidal activity, Green foxtail” value (green foxtail [6]; 10 g/are) was 5 (0). For the same compound, the “Phytotoxicity, Soybean” value (soybean [7]; 3 g/are) was 0 (100), the “Phytotoxicity, Soybean” value (soybean [7]; 9 g/are) was 0 (100) and the “Phytotoxicity, Corn” value (corn [8]; 2.5 g/are) was 1 (90-99). For the same compound, the “Phytotoxicity, Corn” value (corn [8]; 10 g/are) was 2 (80-89), the “Phytotoxicity, Rice plant” value (rice plant; 1.25 g/are) was 1 (90-99) and the “Phytotoxicity, Rice plant” value (rice plant; 2.5 g/are) was 1 (90-99). For the same compound, the “Herbicidal activity, Barnyardgrass” value (barnyardgrass [9]; 1.25 g/are) was 4 (1-10), the “Herbicidal activity, Barnyardgrass” value (barnyardgrass [9]; 2.5 g/are) was 5 (0) and the “Phytotoxicity, Cotton” value (cotton; 2.5 g/are) was 0 (100). For the same compound, the “Phytotoxicity, Cotton” value (cotton; 10 g/are) was 2 (80-89), the “Herbicidal activity, Wild cat” value (wild oat; 1.25 g/are) was 1 (41-60) and the “Herbicidal activity, Wild cat” value (wild oat; 5 g/are) was 5 (0). For the same compound, the “Herbicidal activity, Jimsonweed” value (jimsonweed; 3 g/are) was 5 (0), the “Herbicidal activity, Jimsonweed” value (jimsonweed; 9 g/are) was 5 (0) and the “Herbicidal activity, Prickly sida” value (prickly sida; 3 g/are) was 5 (0). The “Herbicidal activity, Prickly sida” value (prickly sida; 9 g/are) was 5 (0), the “Phytotoxicity, Corn” value (corn [10]; 1.25 g/are) was 0 (100) and the “Phytotoxicity, Corn” value (corn [10]; 5 g/are) was 1 (90-99). For the same compound, the “Herbicidal activity, Velvetleaf” value (velvetleaf [11]; 2.5 g/are) was 5 (0), the “Herbicidal activity, Velvetleaf” value (velvetleaf [11]; 10 g/are) was 5 (0) and the “Herbicidal activity, Morningglory” value (morningglory; 2.5 g/are) was 4 (1-10). The “Herbicidal activity, Morningglory” value (morningglory; 10 g/are) was 5 (0), the “Herbicidal activity, Green foxtail” value (green foxtail [12]; 3 g/are) was 5 (0) and the “Herbicidal activity, Green foxtail” value (green foxtail [12]; 9 g/are) was 5 (0). For the same compound, the “Herbicidal activity, Barnyardgrass” value (barnyardgrass [13]; 1.25 g/are) was 1 (41-60) and the “Herbicidal activity, Barnyardgrass” value (barnyardgrass [13]; 5 g/are) was 5 (0).
